How the values were obtained:
[1] = DRUGMATRIX: Sigma2 radioligand binding (ligand: [3H] Ifenprodil); assay type: cell membranes, Rattus norvegicus, Wistar, Brain, Membrane; conditions: Not Active = under 50% inhibition at 10 µM
[2] = target: Receptor tyrosine-protein kinase erbB-2 (Homo sapiens, UniProt P04626); assay: biochemical; assay type: cell-based, Insect cells; conditions: insect cells;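 further: inhibition of HER2 kinase enzyme activity, measured with Poly(Glu:Tyr) as the phosphorylation substrate; in other assays of this panel Not Active means under 50% inhibition at 10 µM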
Receptor tyrosine-protein kinase erbB-2, sequence (P04626 whole entry): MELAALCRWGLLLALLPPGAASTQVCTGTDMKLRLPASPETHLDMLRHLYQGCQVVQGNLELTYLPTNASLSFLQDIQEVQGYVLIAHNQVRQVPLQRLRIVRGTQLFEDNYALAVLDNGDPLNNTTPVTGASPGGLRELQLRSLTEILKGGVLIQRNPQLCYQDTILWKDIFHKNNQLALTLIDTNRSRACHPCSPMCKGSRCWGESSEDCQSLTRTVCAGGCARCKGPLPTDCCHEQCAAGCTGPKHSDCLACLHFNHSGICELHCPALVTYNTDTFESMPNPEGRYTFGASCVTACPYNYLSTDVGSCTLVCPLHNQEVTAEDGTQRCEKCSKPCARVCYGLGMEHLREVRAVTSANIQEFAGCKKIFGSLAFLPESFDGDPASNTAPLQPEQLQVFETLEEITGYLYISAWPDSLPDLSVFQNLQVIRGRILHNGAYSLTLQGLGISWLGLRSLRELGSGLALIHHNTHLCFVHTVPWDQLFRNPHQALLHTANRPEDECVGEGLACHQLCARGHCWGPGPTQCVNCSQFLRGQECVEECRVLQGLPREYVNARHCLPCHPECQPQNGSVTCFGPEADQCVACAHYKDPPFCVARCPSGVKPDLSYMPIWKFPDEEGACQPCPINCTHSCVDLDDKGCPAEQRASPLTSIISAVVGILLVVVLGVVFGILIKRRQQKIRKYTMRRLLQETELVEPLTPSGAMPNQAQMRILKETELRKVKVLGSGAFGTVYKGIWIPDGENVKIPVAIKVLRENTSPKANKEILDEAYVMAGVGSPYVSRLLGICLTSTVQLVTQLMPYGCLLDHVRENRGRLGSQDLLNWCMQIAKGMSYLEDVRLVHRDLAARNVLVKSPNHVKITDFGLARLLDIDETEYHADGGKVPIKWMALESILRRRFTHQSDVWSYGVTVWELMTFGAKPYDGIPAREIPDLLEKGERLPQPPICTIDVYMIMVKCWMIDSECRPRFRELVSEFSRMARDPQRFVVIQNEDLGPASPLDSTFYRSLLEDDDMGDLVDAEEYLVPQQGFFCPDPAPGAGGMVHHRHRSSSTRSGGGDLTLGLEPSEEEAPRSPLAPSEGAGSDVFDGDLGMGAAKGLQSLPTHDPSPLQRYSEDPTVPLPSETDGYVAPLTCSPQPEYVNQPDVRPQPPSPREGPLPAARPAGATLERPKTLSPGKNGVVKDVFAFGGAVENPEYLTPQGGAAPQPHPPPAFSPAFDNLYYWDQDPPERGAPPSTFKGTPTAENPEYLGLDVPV

[3] = target: T1, 3-hydroxy-3-methylglutaryl-coenzyme A reductase (Homo sapiens, UniProt P04035); set-up: species or system Escherichia coli;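 further: enzyme inhibition assay of HMG-CoA reductase using radiolabeled [14C]HMG-CoA as substrate; in other assays of this panel Not Active means under 50% inhibition at 10 µM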
T1 sequence (P04035 whole entry): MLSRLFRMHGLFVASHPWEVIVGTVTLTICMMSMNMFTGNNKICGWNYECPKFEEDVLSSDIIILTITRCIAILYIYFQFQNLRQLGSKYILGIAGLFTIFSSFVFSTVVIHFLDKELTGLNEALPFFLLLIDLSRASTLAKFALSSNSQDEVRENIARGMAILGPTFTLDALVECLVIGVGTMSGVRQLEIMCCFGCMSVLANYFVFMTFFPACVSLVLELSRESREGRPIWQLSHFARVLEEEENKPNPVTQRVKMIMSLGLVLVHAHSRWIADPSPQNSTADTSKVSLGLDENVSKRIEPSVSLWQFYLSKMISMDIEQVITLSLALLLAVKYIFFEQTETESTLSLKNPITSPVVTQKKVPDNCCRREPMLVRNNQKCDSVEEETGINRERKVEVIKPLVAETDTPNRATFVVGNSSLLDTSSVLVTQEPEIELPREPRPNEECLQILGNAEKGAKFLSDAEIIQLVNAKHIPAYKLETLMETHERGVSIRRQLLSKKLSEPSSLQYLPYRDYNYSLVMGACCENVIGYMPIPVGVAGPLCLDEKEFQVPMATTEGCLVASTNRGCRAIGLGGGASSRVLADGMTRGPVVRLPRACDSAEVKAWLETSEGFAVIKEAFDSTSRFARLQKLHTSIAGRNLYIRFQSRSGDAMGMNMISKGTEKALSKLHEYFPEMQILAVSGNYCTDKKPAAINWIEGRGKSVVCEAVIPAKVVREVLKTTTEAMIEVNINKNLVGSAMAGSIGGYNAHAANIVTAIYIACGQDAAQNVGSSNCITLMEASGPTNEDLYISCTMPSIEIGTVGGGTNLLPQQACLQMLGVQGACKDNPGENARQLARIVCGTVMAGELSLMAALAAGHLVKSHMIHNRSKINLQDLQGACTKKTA

Insulin receptor = Insulin receptor (Rattus norvegicus, UniProt P15127); assay type: cell membranes, Wistar, Liver, Membrane; further: in other assays of this panel Not Active means under 50% inhibition at 10 µM
Insulin receptor, sequence (P15127 27-759 limits assumed): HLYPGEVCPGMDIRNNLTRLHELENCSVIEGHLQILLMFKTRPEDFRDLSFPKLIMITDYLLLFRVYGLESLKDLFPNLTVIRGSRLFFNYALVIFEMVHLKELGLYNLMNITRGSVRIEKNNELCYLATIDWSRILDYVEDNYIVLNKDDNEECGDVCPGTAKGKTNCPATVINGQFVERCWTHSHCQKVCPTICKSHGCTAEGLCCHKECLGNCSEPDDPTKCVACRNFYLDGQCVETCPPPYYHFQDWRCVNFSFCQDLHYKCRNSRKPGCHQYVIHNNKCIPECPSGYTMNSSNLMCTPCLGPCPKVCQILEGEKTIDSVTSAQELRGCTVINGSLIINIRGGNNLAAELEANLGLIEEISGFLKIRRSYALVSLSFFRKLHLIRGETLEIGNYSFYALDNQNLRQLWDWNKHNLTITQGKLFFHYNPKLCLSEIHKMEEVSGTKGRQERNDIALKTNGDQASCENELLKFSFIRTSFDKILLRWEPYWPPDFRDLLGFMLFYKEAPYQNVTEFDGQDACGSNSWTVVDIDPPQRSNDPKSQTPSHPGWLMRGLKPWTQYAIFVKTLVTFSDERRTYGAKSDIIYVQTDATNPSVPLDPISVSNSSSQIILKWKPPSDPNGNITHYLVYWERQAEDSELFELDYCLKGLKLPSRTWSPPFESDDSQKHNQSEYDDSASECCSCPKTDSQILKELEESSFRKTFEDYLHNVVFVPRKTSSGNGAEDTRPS
Insulin receptor, sequence (P15127 764-1383 limits assumed): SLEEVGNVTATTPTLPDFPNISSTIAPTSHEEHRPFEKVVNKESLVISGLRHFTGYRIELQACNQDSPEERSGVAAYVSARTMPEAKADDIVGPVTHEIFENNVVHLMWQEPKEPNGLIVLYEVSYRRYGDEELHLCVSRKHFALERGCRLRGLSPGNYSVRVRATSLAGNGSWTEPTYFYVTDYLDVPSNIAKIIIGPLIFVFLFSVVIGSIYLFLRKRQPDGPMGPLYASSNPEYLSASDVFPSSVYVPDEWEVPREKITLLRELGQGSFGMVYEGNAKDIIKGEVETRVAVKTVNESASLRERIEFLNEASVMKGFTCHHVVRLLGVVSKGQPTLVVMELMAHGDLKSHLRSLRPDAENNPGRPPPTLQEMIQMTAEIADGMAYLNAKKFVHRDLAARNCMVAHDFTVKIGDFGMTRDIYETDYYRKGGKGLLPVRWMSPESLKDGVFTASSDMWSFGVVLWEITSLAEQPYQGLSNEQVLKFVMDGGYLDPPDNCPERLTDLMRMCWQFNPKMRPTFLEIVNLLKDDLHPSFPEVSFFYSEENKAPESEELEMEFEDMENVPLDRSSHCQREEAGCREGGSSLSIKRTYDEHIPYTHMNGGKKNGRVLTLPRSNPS

[4] = DRUGMATRIX: ATPase, Na+/K+ enzyme inhibition (substrate: ATP); assay type: tissue-based, Sus scrofa, Heart; conditions: Not Active = under 50% inhibition at 10 µM
Cytochrome P450 1A2 = target: T2, Cytochrome P450 1A2 (Homo sapiens, UniProt P05177); conditions: bti-tn-5b1-4; further: in other assays of this panel Not Active means under 50% inhibition at 10 µM
T2 sequence (P05177 whole entry): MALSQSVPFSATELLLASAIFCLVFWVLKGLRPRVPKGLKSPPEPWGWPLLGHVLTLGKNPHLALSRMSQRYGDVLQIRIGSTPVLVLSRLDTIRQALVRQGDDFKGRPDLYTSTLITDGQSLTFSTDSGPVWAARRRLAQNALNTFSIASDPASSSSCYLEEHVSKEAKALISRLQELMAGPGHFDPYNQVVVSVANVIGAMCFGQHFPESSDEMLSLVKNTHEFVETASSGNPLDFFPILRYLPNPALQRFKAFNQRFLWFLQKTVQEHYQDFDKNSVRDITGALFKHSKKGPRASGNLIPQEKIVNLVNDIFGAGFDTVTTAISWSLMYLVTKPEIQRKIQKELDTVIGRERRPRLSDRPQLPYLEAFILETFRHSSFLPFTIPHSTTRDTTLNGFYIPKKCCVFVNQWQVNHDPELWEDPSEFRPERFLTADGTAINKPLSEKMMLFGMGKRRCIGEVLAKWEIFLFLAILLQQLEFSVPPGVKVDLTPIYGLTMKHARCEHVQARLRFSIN

[5] = target: Beta-1 adrenergic receptor (Homo sapiens, UniProt P08588); assay: DRUGMATRIX: Adrenergic beta1 radioligand binding (ligand: [125I] Cyanopindolol); assay type: cell membranes, CHO-K1, Membrane; conditions: cho-k1; Not Active = under 50% inhibition at 10 µM
Beta-1 adrenergic receptor, sequence (P08588 whole entry): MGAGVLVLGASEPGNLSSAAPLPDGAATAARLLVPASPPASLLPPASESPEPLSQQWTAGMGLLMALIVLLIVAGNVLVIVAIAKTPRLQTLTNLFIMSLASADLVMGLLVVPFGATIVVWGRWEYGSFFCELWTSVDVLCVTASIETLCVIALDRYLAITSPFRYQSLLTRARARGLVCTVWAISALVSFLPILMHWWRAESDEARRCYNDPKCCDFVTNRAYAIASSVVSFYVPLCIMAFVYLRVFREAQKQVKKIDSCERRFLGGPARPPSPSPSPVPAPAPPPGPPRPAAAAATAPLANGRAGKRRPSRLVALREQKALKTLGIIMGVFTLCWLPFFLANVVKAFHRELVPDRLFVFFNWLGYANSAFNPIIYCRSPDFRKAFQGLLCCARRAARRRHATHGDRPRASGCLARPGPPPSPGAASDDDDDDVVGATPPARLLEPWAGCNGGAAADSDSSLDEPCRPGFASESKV

COc1nc(C)nc(Cl)c1NC1=NCCN1 [MOXONIDINE]
Not Active: IC50 [1] | Ki [1] | IC50 [2] | IC50 [3] | IC50 (Insulin receptor) | IC50 [4] | Ki [4] | IC50 (Cytochrome P450 1A2) | Ki (Cytochrome P450 1A2) | IC50 [5]

COc1c(C)c2c(c(O)c1C/C=C(\C)CCC(=O)O)C(=O)OC2 [MYCOPHENOLIC ACID]
Not Active: IC50 [1] | Ki [1] | IC50 [2] | IC50 [3] | IC50 (Insulin receptor) | IC50 [4] | Ki [4] | IC50 (Cytochrome P450 1A2) | Ki (Cytochrome P450 1A2) | IC50 [5]

O=c1ncn2nc(Sc3ccc(F)cc3F)ccc2c1-c1c(Cl)cccc1Cl [NEFLAMAPIMOD]
Not Active: IC50 [1] | Ki [1] | IC50 [2] | IC50 [3] | IC50 (Insulin receptor) | IC50 [4] | Ki [4] | IC50 (Cytochrome P450 1A2) | Ki (Cytochrome P450 1A2) | IC50 [5]

CO[C@H]1/C=C/O[C@@]2(C)Oc3c(C)c(O)c4c(O)c(c(/C=N/N5CCN(C)CC5)c(O)c4c3C2=O)NC(=O)/C(C)=C\C=C\[C@H](C)[C@H](O)[C@@H](C)[C@@H](O)[C@@H](C)[C@H](OC(C)=O)[C@@H]1C [RIFAMPIN]
Not Active: IC50 [1] | Ki [1] | IC50 [2] | IC50 [3] | IC50 (Insulin receptor) | IC50 [4] | Ki [4] | IC50 (Cytochrome P450 1A2) | Ki (Cytochrome P450 1A2) | IC50 [5]

C=CCC1(C(C)CCC)C(=O)NC(=O)NC1=O (stereo not given) [SECOBARBITAL]
Not Active: IC50 [1] | Ki [1] | IC50 [2] | IC50 [3] | IC50 (Insulin receptor) | IC50 [4] | Ki [4] | IC50 (Cytochrome P450 1A2) | Ki (Cytochrome P450 1A2) | IC50 [5]

C[C@@H]1CN(c2c(F)c(N)c3c(=O)c(C(=O)O)cn(C4CC4)c3c2F)C[C@H](C)N1 [SPARFLOXACIN]
Not Active: IC50 [1] | Ki [1] | IC50 [2] | IC50 [3] | IC50 (Insulin receptor) | IC50 [4] | Ki [4] | IC50 (Cytochrome P450 1A2) | Ki (Cytochrome P450 1A2) | IC50 [5]

Cc1noc(NS(=O)(=O)c2ccc(N)cc2)c1C [SULFISOXAZOLE]
Not Active: IC50 [1] | Ki [1] | IC50 [2] | IC50 [3] | IC50 (Insulin receptor) | IC50 [4] | Ki [4] | IC50 (Cytochrome P450 1A2) | Ki (Cytochrome P450 1A2) | IC50 [5]

Nc1c2c(nc3ccccc13)CCCC2 [TACRINE]
Not Active: IC50 [1] | Ki [1] | IC50 [2] | IC50 [3] | IC50 (Insulin receptor) | IC50 [4] | Ki [4] | IC50 (Cytochrome P450 1A2) | Ki (Cytochrome P450 1A2) | IC50 [5]

Nc1nc2nc[nH]c2c(=S)[nH]1 [THIOGUANINE]
Not Active: IC50 [1] | Ki [1] | IC50 [2] | IC50 [3] | IC50 (Insulin receptor) | IC50 [4] | Ki [4] | IC50 (Cytochrome P450 1A2) | Ki (Cytochrome P450 1A2) | IC50 [5]

Cc1cccc(N(C)C(=S)Oc2ccc3ccccc3c2)c1 [TOLNAFTATE]
Not Active: IC50 [1] | Ki [1] | IC50 [2] | IC50 [3] | IC50 (Insulin receptor) | IC50 [4] | Ki [4] | IC50 (Cytochrome P450 1A2) | Ki (Cytochrome P450 1A2) | IC50 [5]

NC[C@H]1CC[C@H](C(=O)O)CC1 [TRANEXAMIC ACID]
Not Active: IC50 [1] | Ki [1] | IC50 [2] | IC50 [3] | IC50 (Insulin receptor) | IC50 [4] | Ki [4] | IC50 (Cytochrome P450 1A2) | Ki (Cytochrome P450 1A2) | IC50 [5]

CC1(C)O[C@@H]2C[C@H]3[C@@H]4CCC5=CC(=O)C=C[C@]5(C)[C@@]4(F)[C@@H](O)C[C@]3(C)[C@]2(C(=O)CO)O1 [TRIAMCINOLONE ACETONIDE]
Not Active: IC50 [1] | Ki [1] | IC50 [2] | IC50 [3] | IC50 (Insulin receptor) | IC50 [4] | Ki [4] | IC50 (Cytochrome P450 1A2) | Ki (Cytochrome P450 1A2) | IC50 [5]

NS(=O)(=O)c1cc2c(cc1Cl)NC(C(Cl)Cl)NS2(=O)=O (stereo not given) [TRICHLORMETHIAZIDE]
Not Active: IC50 [1] | Ki [1] | IC50 [2] | IC50 [3] | IC50 (Insulin receptor) | IC50 [4] | Ki [4] | IC50 (Cytochrome P450 1A2) | Ki (Cytochrome P450 1A2) | IC50 [5]

Cc1c(C)c2c(c(C)c1O)CCC(C)(COc1ccc(CC3SC(=O)NC3=O)cc1)O2 (stereo not given) [TROGLITAZONE]
Not Active: IC50 [1] | Ki [1] | IC50 [2] | IC50 [3] | IC50 (Insulin receptor) | IC50 [4] | Ki [4] | IC50 (Cytochrome P450 1A2) | Ki (Cytochrome P450 1A2) | IC50 [5]

N[C@@H]1[C@H]2CN(c3nc4c(cc3F)c(=O)c(C(=O)O)cn4-c3ccc(F)cc3F)C[C@@H]12 [TROVAFLOXACIN]
Not Active: IC50 [1] | Ki [1] | IC50 [2] | IC50 [3] | IC50 (Insulin receptor) | IC50 [4] | Ki [4] | IC50 (Cytochrome P450 1A2) | Ki (Cytochrome P450 1A2) | IC50 [5]
